The conditions of data set [1]: rcm bond.
The target of another data set is T1, human TLR7 (Homo sapiens, UniProt Q9NYK1).
T1 construct: expressed in transfected cells; host or cells: HEK293
T1 sequence (Q9NYK1 27-1049): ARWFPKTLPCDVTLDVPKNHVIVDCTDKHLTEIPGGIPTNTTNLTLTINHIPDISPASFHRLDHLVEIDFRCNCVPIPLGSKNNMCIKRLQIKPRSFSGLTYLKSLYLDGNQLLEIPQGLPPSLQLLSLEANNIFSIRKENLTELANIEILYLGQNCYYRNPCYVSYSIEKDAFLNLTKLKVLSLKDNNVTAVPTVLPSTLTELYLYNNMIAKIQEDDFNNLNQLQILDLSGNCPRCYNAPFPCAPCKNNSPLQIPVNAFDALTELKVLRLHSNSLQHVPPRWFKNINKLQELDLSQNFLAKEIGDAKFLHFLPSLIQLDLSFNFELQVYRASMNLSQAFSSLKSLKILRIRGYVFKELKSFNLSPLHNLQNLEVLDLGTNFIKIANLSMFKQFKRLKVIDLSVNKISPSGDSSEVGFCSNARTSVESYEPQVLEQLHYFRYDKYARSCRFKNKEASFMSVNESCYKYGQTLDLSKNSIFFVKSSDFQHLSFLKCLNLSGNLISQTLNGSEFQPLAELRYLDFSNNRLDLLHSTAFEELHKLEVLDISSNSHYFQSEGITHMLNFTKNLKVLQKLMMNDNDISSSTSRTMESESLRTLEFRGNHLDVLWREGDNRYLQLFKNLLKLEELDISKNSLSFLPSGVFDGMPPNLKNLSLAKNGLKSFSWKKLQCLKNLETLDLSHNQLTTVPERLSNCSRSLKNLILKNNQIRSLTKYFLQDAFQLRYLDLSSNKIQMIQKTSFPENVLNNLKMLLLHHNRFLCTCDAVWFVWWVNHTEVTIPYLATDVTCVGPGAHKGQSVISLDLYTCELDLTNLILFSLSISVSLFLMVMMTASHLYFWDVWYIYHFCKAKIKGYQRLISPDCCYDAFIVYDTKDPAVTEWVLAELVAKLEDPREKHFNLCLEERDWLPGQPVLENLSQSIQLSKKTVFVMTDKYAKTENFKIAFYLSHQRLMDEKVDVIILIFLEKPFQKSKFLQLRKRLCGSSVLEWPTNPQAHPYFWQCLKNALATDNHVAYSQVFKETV
Description: HEK293 TLR7-NFκB-luc cellular reporter assay. To be noted: lowest effective concentration; HEK293 transiently transfected with TLR7 and NFκB-luc; 6 hours incubation. In kind it is cell-based. How it is done:
(§1) The ability of compounds to activate human TLR7 and TLR8 was assessed in a cellular reporter assay using HEK293 cells transiently transfected with a TLR7 or TLR8 expression vector and NFκB-luc reporter construct. Briefly, HEK293 cells were grown in culture medium (DMEM supplemented with 10% FCS and 2 mM Glutamine). For transfection of cells in 15 cm dishes, cells were detached with Trypsin-EDTA, transfected with a mix of CMV-TLR7 or TLR8 plasmid (1,700 ng), NFκB-luc plasmid (850 ng) and a transfection reagent and incubated 48 hours at 37° C. in a humidified 5% CO2 atmosphere. Transfected cells were then washed in PBS, detached with Trypsin-EDTA, and resuspended in medium to a density of 1.25×10^5 cells/mL. Forty microliters of cells were then dispensed into each well in 384-well plates, where 200 nL of compound in 100% DMSO was already present. Following 6 hours incubation at 37° C., 5% CO2, the luciferase activity was determined by adding 15 μl of Steady Lite Plus substrate (Perkin Elmer) to each well and readout performed on a ViewLux ultraHTS microplate imager (Perkin Elmer). Dose response curves were generated from measurements performed in quadruplicates. Lowest effective concentrations (LEC) values, defined as the concentration that induces an effect which is at least two fold above the standard deviation of the assay, were determined for each compound.
For orientation: A reporter such as luciferase makes a cellular process visible.

A further data set has as its target T2, human TLR8 (Homo sapiens, UniProt Q9NR97).
T2 construct: expressed in transfected cells; host or cells: HEK293
T2 sequence (Q9NR97 27-1041): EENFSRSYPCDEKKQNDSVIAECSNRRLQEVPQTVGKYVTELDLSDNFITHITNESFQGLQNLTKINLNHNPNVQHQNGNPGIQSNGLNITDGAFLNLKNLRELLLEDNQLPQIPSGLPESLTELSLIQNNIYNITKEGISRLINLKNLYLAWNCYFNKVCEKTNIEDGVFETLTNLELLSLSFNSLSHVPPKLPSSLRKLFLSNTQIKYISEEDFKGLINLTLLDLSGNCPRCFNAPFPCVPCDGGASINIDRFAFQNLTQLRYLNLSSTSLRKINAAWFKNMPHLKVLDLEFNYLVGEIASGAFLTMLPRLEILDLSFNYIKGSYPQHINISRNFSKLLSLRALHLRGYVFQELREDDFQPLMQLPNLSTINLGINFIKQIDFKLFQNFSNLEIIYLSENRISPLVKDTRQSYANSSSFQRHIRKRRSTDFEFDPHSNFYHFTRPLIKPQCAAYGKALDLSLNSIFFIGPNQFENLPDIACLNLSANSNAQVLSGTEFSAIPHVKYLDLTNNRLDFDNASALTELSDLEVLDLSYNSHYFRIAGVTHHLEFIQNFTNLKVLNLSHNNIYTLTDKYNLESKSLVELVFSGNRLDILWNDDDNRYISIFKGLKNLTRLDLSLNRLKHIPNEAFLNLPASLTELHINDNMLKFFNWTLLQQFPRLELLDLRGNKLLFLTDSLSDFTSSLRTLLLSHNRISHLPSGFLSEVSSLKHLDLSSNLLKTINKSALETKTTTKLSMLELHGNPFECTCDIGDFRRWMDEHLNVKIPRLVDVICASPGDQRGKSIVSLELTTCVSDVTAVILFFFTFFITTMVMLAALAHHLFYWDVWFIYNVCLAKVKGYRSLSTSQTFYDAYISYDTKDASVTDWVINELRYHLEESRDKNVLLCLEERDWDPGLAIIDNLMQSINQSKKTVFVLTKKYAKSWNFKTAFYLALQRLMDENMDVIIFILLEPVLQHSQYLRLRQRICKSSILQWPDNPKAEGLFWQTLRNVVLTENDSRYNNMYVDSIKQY
Description: HEK293 TLR8-NFκB-luc cellular reporter assay. The format is cell-based. Conditions: lowest effective concentration; greater than the highest tested concentration. As for the experimental part: as §1

The next data set concerns HEK293 NFκB-luc. In words: Counterscreen: HEK293 cells transfected with NFκB-luc reporter construct alone. In kind it is cell-based. To be noted: lowest effective concentration; greater than the highest tested concentration. As for the experimental part:
In parallel, a similar dilution series of compound was used (200 nL of compound in 100% DMSO) with 40 μL per well of cells transfected with NFκB-luc reporter construct alone (1.25×10^5 cells/mL). Six hours after incubation at 37° C., 5% CO2, the luciferase activity was determined by adding 15 μl of Steady Lite Plus substrate (Perkin Elmer) to each well and readout performed on a ViewLux ultraHTS microplate imager (Perkin Elmer). Counterscreen data is reported as LEC.
(In general: The purpose of a counterscreen is to sort out artefacts and off-target activity.)

The test system of data set [2] is interferon production in human PBMC. Description: Interferon production in human PBMC, read out on HEK-ISRE-luc reporter cells. The format is cell-based. Conditions: Homo sapiens, PBMC, 24 h, lowest effective concentration, PBMC incubated overnight with compound, supernatant transferred to HEK-ISRE-luc cells, read-out: PBMC HEK-ISRE-luc (LEC; μM). How it is done:
Activation of human TLR7 results in robust production of interferon by plasmacytoid dendritic cells present in human blood. The potential of compounds to induce interferon was evaluated by determination of interferon in the conditioned media from peripheral blood mononuclear cells (PBMC). The presence of interferon in the samples was determined, using an interferon reporter cell line stably expressing an interferon-stimulated responsive elements (ISRE)-luc reporter construct. The ISRE element with sequence TAGTTTCACTTTCCC (SEQ ID NO: 1) is highly responsive to the STAT1-STAT2-IRF9 transcription factor, which becomes activated upon binding of IFN-I to the IFN receptor. Briefly, PBMCs were prepared from buffy coats of at least two donors using a standard Ficoll centrifugation protocol. Isolated PBMCs were resuspended in RPMI medium supplemented with 10% human AB serum and 2×10^5 cells/well were dispensed into 384-well plates containing compounds (70 μL total volume). After overnight incubation of the PBMCs with the compounds, 10 μL of supernatant was transferred to 384-well plates containing 5×10^3 HEK-ISRE-luc cells/well in 30 μL (plated the day before). Following 24 hours of incubation, activation of the ISRE elements was measured by assaying luciferase activity using 40 μL/well Steady Lite Plus substrate (Perkin Elmer) and measured with ViewLux ultraHTS microplate imager (Perkin Elmer). The stimulating activity of each compound on the HEK-ISRE-luc cells was reported as LEC. The LEC in turn indicates the degree of ISRE activation on transfer of a defined amount of PBMC culture medium. Recombinant interferon alfa-2a (Roferon-A) was used as a standard control compound.

Where two headings read alike, the source gives them in different places. A value given as a limit tells only on which side of the number the result lay.

`CCOC(=O)N1CCc2ccc(OC)c(c2)OCC=CCOc2cc1c([N+](=O)[O-])c(N)n2`: the ring closure, yield of all isomers in data set [1] (from C=CCOc1cc(N(CCc2ccc(OC)c(OCC=C)c2)C(=O)OCC)c([N+](=O)[O-])c(N)n1, Grubbs-Hoveyda catalyst 2nd generation (with chlorodicyclohexylborane), 1,2-dichloroethane, 4.24 mM, 120.0 °C, 23.0 h) turned out to be 25%.

For the molecule `CCOC(=O)N1Cc2cc(OC)cc(c2)OCC=CCCOc2cc1c([N+](=O)[O-])c(N)n2`, the ring closure, yield of all isomers in data set [1] (from C=CCCOc1cc(N(Cc2cc(OC)cc(OCC=C)c2)C(=O)OCC)c([N+](=O)[O-])c(N)n1, Grubbs 2nd generation, CH2Cl2, 5.3 mM, 25.0 °C, 16.0 h) is 41%. Molecule `CCOC(=O)N1Cc2cccc(c2)CC=CCCOc2cc1c([N+](=O)[O-])c(N)n2` had a ring closure, yield of all isomers in data set [1] (from C=CCCOc1cc(N(Cc2cccc(CC=C)c2)C(=O)OCC)c([N+](=O)[O-])c(N)n1, Grubbs 2nd generation, CH2Cl2, 3.38 mM, 25.0 °C, 72.0 h) of 33%. In turn, `CCOC(=O)N1Cc2cccc(c2)N(C(=O)OC(C)(C)C)CC=CCCOc2cc1c([N+](=O)[O-])c(N)n2` came in with a ring closure, yield of all isomers in data set [1] (from C=CCCOc1cc(N(Cc2cccc(N(CC=C)C(=O)OC(C)(C)C)c2)C(=O)OCC)c([N+](=O)[O-])c(N)n1, Grubbs catalyst 2nd generation, dichloromethane, 6.93 mM, 25.0 °C, 24.0 h) of 67%. In data set [1] (from C=CCOc1cc(N(Cc2cccc(N(CC=C)C(=O)OC(C)(C)C)c2)C(=O)OCC)c([N+](=O)[O-])c(N)n1, Grubbs-Hoveyda catalyst 2nd generation (with chlorodicyclohexylborane), 1,2-dichloroethane, 4.1 mM, 120.0 °C, 16.0 h), `CCOC(=O)N1Cc2cccc(c2)N(C(=O)OC(C)(C)C)CC=CCOc2cc1c([N+](=O)[O-])c(N)n2` returned a ring closure, yield of all isomers of 40%. The molecule `CCOC(=O)N1Cc2cccc(c2)OCC=CCCOc2cc1c([N+](=O)[O-])c(N)n2` yielded a ring closure, yield of all isomers in data set [1] (from C=CCCOc1cc(N(Cc2cccc(OCC=C)c2)C(=O)OCC)c([N+](=O)[O-])c(N)n1, Grubbs 2nd generation, CH2Cl2, 5.22 mM, 25.0 °C, 20.0 h) of 15%.

Molecule `CCOC(=O)N1Cc2cccc(c2)OCC=CCOc2cc1c([N+](=O)[O-])c(N)n2` returned a ring closure, yield of all isomers in data set [1] (from C=CCOc1cccc(CN(C(=O)OCC)c2cc(OCC=C)nc(N)c2[N+](=O)[O-])c1, Hoveyda-Grubbs 2nd generation (with chlorodicyclohexylborane), 1,2-dichloroethane, 3.47 mM, 120.0 °C, 37.0 h) of 19%. The molecule `CCOC(=O)N1Cc2cccc(c2)OCCC=CCOc2cc1c([N+](=O)[O-])c(N)n2` registered a ring closure, yield of all isomers in data set [1] (from C=CCCOc1cccc(CN(C(=O)OCC)c2cc(OCC=C)nc(N)c2[N+](=O)[O-])c1, Grubbs-Hoveyda catalyst 2nd generation (with chlorodicyclohexylborane), 1,2-dichloroethane, 4.18 mM, 120.0 °C, 32.0 h) of 36%. `CCOC(=O)N1Cc2ncccc2OCC=CCCOc2cc1c([N+](=O)[O-])c(N)n2` yielded a ring closure, yield of all isomers in data set [1] (from C=CCCOc1cc(N(Cc2ncccc2OCC=C)C(=O)OCC)c([N+](=O)[O-])c(N)n1, Hoveyda-Grubbs 2nd generation (with chlorodicyclohexylborane), 1,2-dichloroethane, 3.6 mM, 120.0 °C, 3.0 h) of 22%. `Nc1nc2cc3c1nc(O)n3Cc1cccc(c1)CCCCCO2` [Compound 4]: the “HEK293 TLR7-NFκB-luc (LEC; μM)” value on human TLR7 was determined as 2.38 µM. Besides, the “LEC on HEK293 TLR8-NFκB-luc” value on human TLR8 was greater than 10 µM. Further, the “LEC on HEK293 NFκB-luc (counterscreen)” value in the data set on HEK293 NFκB-luc was greater than 10 µM. Besides, the minimal effective concentration in data set [2] is 2.56 µM. On to `COc1ccc2cc1OC/C=C/COc1cc3c(nc(O)n3CC2)c(N)n1` [Compound 36], for which, on human TLR7, the “HEK293 TLR7-NFκB-luc (LEC; μM)” value was determined as 13.75 µM. Moreover, in data set [2], the minimal effective concentration was found to be 1.63 µM.

Values taken from patent US11702426B2, “Macrocyclic deaza-purinones for the treatment of viral infections” (JANSSEN SCIENCES IRELAND UNLIMITED COMPANY, priority 2013, dated 2023).
